Measured values published in patent publication US9139548B2, “Polycyclic derivatives, preparation process and pharmaceutical use thereof” (Jiangsu Hengrui Medicine Co., Ltd., priority 2012, dated 2015).

Columns and labels:
[1] = Pharmacokinetics assay in rats after intragastric administration; type: in vivo; settings: for Vd/F / AUC / CL/F / half-life / MRT / Cmax: both sexes, SD, rat, plasma, po, 5 mg/kg; for Vd/F: read-out: Apparent Distribution Volume Vz/F; for AUC: read-out: Area under Curve AUC; for CL/F: read-out: Clearance CL/F (converted); for half-life: read-out: Half-Life t½ (converted); for MRT: read-out: Mean Residence Time MRT; for Cmax: read-out: Plasma Conc. Cmax
Experimental: The compounds of the present invention were administered intragastrically to determine the drug concentration in plasma at different time points. The pharmacokinetic behavior of the compounds of the present invention was studied and evaluated in rats.
Compounds of Example 1, Example 2, Example 13 and Example 30
16 healthy adult SD rats were divided into 4 groups with 4 in each group, half male and half female. Rats were purchased from SINO-BRITSH SIPPR/BK LAB. ANIMAL LTD., CO, License number: SCXK (Shanghai) 2008-0016
The appropriate amount of test compounds were weighed and added to 0.5% sodium carboxymethyl cellulose to prepare a 0.5 mg/mL suspension using microwave.
After an overnight fast, the rats were administered intragastrically a dose of 5.0 mg/kg, at an administration volume of 10 mL/kg. Blood samples were taken before administration and after administration at different time points over 24.0 hours, using heparin as an anticoagulant. The separated plasma samples were stored at −20° C. The rats were fed 2 hours after administration.
Blood samples (0.1 mL) were taken before administration and at 1.0, 2.0, 3.0, 4.0, 6.0, 8.0, 11.0, 24.0 and 48.0 hours after administration, which were stored in heparinized tubes and centrifuged for 5 minutes at 3,500 rpm to separate blood plasma. The plasma samples were stored at −20° C. The rats were fed 2 hours after administration.
The content of the different test compounds in rat plasma samples after the intragastric administration was determined by LC/MS/MS method. The linearity of the method is 1.00˜2000 ng/ml. The blood sample was analyzed after protein precipitation was accomplished by the addition of methanol.

[2] = target: T1, GPR40 (Homo sapiens, UniProt O14842); experiment: Agonist activity on CHO-K1/GPR40 cell (Fluo-4 calcium fluorescence); type: cell-based; settings: CHO-K1 cell line expressing GPR40, calcium ion fluorescence
T1 construct: host or cells: CHO-K1 (Cell bank of the Chinese Academy of Sciences, GNHa 7), retrovirus infection
Description: Agonist activity of compounds of the present disclosure on CHO-K1/GPR40 cell.
The following method was used to determine the agonist activity of compounds of the present disclosure on GPR40. The experiment process is described as follows:
CHO-K1/GPR40 cell (CHO-K1 cell line expressing GPR40, which was constructed using retrovirus infection method, CHO-K1/GPR40 cell for short, wherein CHO-K1 cell was purchased from Cell bank of the Chinese Academy of Sciences, catalogue number GNHa 7; GPR40 cDNA was purchased from Guangzhou FulenGen Co., Ltd, catalogue number EX-UO270-MO2) was inoculated in a 96-well plate with an inoculation density of 25000 cells/well. The cell plate was incubated at 37° C. and 5% CO2 for 24 hours. The cell culture fluid was discarded during the experiment, the cells were washed with buffer solution (1×HBSS+20 mM HEPES pH 7.4) once, 100 μL of Fluo-4 calcium ion dye was quickly added into each well, incubated at 37° C. in the dark for 30 minutes, and then at room temperature for another 30 minutes. During the determination, the baseline value of each well was read at first, and then different concentrations of drug were added to the wells (50 μL/well), and the fluorescence values were then read. The fluorescence excitation wavelength was 494 nm and the emission wavelength was 516 nm. The increase of fluorescence intensity was proportional to calcium ion level in the cells. Cell response rate of each cell/(The maximum fluorescence value−The minimum fluorescence value)/The minimum fluorescence value. EC50 values of the compounds were calculated

[3] = tested on: ICR mice fed on a high fat diet; experiment: Oral glucose tolerance test (OGTT) in glucose load mice fed on a high fat diet; type: in vivo; settings: blood glucose AUC, high fat diet ICR male mice, single oral dose 40 mg/kg
Experimental: ICR mice fed on a high fat diet were used as test animals. The effect of oral administration of a single dose of the compounds of the present disclosure on oral glucose tolerance test (OGTT) of glucose load mice was studied.
Compounds of Example 1, Example 2, Example 13, Example 16, Example 18, Example 19 and Example 26
Healthy ICR male mice were purchased from SINO-BRITSH SIPPR/BK LAB. ANIMAL LTD., CO, License number: SCXK (Shanghai) 2008-0016
The test compounds were added to aqueous 0.5% CMC-Na solution to prepare the corresponding concentration suspension using microwave.
After an overnight fast for 16 hours, male mice fed on a high fat diet were weighed, and the basic blood glucose was determined. The mice were randomly divided into a Blank group and the group of each test compound of the present disclosure according to the level of blood glucose.
The dosage of administration was 20 mg/kg or 40 mg/kg, and the Blank group was administered aqueous 0.5 CMC-Na solution.
20% Glucose solution was administered 15 minutes after intragastrical administration (each mouse was administered 0.4 mL)
The compounds were administered according to the aforesaid dosage to determine the blood glucose value (−15 minutes).
At 15 minutes after administration, 20% glucose solution was administrated at a dose of 2 g/kg and the blood glucose values at 0, 15, 30, 45, 60 and 120 minutes in each mouse were determined by Roche Accu-Chek blood glucose monitoring meter.
Using Excel statistical software: the average value was calculated with avg; SD value was calculated with STDEV; and P value of difference among groups was calculated with TTEST. • AUC calculation formula: AUC=(t15min+t0min)×0.25/2+(t30min+t15min)×0.25/2+(t45min+t30min)×0.25/2+(t60min+t45min)×0.25/2+(t120min+t60min)×1/2 • Wherein t0min, t15min, t30min, t45min, t60min, t120min were blood glucose values determined at different time points.

T1 sequence (O14842 whole entry): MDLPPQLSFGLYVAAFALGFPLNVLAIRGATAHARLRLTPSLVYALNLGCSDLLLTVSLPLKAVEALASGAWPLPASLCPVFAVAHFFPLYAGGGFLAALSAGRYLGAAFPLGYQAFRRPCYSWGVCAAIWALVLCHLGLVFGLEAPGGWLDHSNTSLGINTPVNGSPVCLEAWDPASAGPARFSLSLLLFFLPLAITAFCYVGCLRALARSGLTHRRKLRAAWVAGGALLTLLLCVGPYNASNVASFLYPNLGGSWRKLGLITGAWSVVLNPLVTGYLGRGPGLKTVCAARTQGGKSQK

| Area under Curve AUC ([1]; SD rats, 5 mg/Kg) | Clearance CL/F ([1]; SD rats, 5 mg/Kg) | Half-Life t½ ([1]; SD rats, 5 mg/Kg) | Mean Residence Time MRT ([1]; SD rats, 5 mg/Kg) | Plasma Conc. Cmax ([1]; SD rats, 5 mg/Kg) | EC50 [2] | Vd/F [1] | AUC [1] | CL/F [1] | half-life [1] | MRT [1] | Cmax [1] | Structure (SMILES) | AUC decrease rate % ([3]; 40 mg/kg) | AUC decrease rate % [3] |
| --- | --- | --- | --- | --- | --- | --- | --- | --- | --- | --- | --- | --- | --- | --- |
| 39357 ± 10659 ng·h/mL | 2.17 ± 0.5 mL/min/kg | 10.0 ± 0.3 h | 12.5 ± 1.5 h | 3153 ± 482 ng/mL | 0.016 µM | – | – | – | – | – | – | Cc1cc(O[C@@H]2COC[C@H]2O)cc(C)c1-c1cccc(COc2ccc3c(c2)OC[C@H]3CC(=O)O)c1 (mixture of isomers) [Example 13, 2-((S)-6-((4′-(((3R,4R)/(3S,4S)-4-Hydroxytetrahydrofuran-3-yl)oxy)-2′,6′-dimethylbiphenyl-3-yl)methoxy)-2,3-dihydrobenzofuran-3-yl)acetic acid] | 39.71% | – |
| – | – | – | – | – | 0.035 µM | 2.79 ± 0.79 L/kg | 32900 ± 11900 ng·h/mL | 2.5 mL/min/kg | 13.4 ± 3.8 h | 18.9 ± 6 h | 2010 ± 511 ng/mL | Cc1cc(O[C@@H]2CCOC2)cc(C)c1-c1cccc(COc2ccc3c(c2)OC[C@H]3CC(=O)O)c1 [Example 2, 2-((S)-6-((2′,6′-Dimethyl-4′-(((R)-tetrahydrofuran-3-yl)oxy)biphenyl-3-yl)methoxy)-2,3-dihydrobenzofuran-3-yl)acetic acid] | – | 29.49% |
| – | – | – | – | – | 0.034 µM | 1.88 ± 0.66 L/kg | 38200 ± 15000 ng·h/mL | 2.33 mL/min/kg | 9.35 ± 0.55 h | 13.3 ± 2 h | 2730 ± 478 ng/mL | Cc1cc(O[C@@H]2COC[C@H]2O)cc(C)c1-c1cccc(COc2ccc3c(c2)OC[C@H]3CC(=O)O)c1 [Example 30, 2-((S)-6-((4′-(((3R,4R)-4-hydroxytetrahydrofuran-3-yl)oxy)-2′,6′-dimethylbiphenyl-3-yl)methoxy)-2,3-dihydrobenzofuran-3-yl)acetic acid] | 29.59% | – |
| – | – | – | – | – | 0.031 µM | 3.39 ± 1.24 L/kg | 21600 ± 8620 ng·h/mL | 4 mL/min/kg | 10.1 ± 3.3 h | 14.5 ± 4.7 h | 1690 ± 698 ng/mL | Cc1cc(O[C@H]2CCOC2)cc(C)c1-c1cccc(COc2ccc3c(c2)OC[C@H]3CC(=O)O)c1 [Example 1, 2-((S)-6-((2′,6′-Dimethyl-4′-(((S)-tetrahydrofuran-3-yl)oxy)biphenyl-3-yl)methoxy)-2,3-dihydrobenzofuran-3-yl)acetic acid] | – | 36.08% |
